The values below come from ChEMBL document CHEMBL1155303, “Multiple strategies for the preparation of a sulfur-35 labeled NPC1L1 radioligand” (Bioorg Med Chem Lett, 2009).

Assay [1] deals with T1, NPC1-like intracellular cholesterol transporter 1 (Homo sapiens, UniProt Q9UHC9).
T1 sequence (Q9UHC9 whole entry): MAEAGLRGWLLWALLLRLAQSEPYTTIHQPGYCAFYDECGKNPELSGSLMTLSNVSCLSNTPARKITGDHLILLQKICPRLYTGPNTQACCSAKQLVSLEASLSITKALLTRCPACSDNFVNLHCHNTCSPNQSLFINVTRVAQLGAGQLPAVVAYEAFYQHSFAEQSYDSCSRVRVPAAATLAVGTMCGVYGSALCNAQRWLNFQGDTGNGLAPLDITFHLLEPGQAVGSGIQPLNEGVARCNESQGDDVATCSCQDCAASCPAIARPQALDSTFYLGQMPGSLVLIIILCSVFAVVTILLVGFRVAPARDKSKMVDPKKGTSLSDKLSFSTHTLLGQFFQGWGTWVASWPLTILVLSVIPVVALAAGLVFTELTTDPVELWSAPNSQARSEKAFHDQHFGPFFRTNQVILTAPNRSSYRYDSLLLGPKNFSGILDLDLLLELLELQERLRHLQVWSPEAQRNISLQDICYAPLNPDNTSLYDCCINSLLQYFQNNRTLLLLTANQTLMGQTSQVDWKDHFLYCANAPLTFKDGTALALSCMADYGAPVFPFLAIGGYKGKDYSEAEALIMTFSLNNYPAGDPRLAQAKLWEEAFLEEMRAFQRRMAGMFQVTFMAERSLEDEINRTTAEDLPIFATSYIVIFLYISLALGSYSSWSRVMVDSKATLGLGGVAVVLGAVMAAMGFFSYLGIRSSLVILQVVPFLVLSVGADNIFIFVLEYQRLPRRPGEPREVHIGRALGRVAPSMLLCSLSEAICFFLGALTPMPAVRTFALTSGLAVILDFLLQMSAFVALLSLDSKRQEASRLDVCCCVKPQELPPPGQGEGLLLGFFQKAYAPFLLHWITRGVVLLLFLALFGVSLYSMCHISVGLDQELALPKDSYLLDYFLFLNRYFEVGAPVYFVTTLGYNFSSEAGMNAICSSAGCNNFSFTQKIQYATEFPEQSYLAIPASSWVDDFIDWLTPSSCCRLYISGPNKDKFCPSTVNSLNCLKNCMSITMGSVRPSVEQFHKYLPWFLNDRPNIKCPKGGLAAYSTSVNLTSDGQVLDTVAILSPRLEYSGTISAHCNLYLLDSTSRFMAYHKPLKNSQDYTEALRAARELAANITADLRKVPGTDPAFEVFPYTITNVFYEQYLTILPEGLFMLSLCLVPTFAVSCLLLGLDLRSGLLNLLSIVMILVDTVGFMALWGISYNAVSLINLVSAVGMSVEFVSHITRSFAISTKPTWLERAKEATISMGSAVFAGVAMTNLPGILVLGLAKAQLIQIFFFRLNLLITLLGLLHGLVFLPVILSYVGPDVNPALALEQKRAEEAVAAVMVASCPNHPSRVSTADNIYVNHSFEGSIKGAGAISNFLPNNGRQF
Put plainly: Displacement of [35S](2S,3S,4S,5R,6S)-6-(4-((2S,3R)-3-((S)-3-(4-fluorophenyl)-3-hydroxypropyl)-1-(4-(3-(methylsulfonamido)prop-1-ynyl)phenyl)-4-oxoazetidin-2-yl)phenoxy)-3,4,5-trihydroxytetrahydro-2H-pyran-2-carboxylic acid from recombinant human NPC1L1 expressed in HEK cells by single tube filtration assay. It counts as cell-based, HEK293. For orientation: Loss of bound radioactivity is the signal in a displacement assay; it reports binding, not function.

Assay [2] concerns the target T2, NPC1-like intracellular cholesterol transporter 1 (Rattus norvegicus, UniProt Q6T3U3). As to the kind of experiment: Displacement of [35S](2S,3S,4S,5R,6S)-6-(4-((2S,3R)-3-((S)-3-(4-fluorophenyl)-3-hydroxypropyl)-1-(4-(3-(methylsulfonamido)prop-1-ynyl)phenyl)-4-oxoazetidin-2-yl)phenoxy)-3,4,5-trihydroxytetrahydro-2H-pyran-2-carboxylic acid from recombinant rat NPC1L1 expressed in HEK cells by single tube filtration assay. It counts as cell-based, HEK293.

The target of assay [3] is T2, NPC1-like intracellular cholesterol transporter 1. Put plainly: Displacement of [35S](2S,3S,4S,5R,6S)-6-(4-((2S,3R)-3-((S)-3-(4-fluorophenyl)-3-hydroxypropyl)-1-(4-(3-(methylsulfonamido)prop-1-ynyl)phenyl)-4-oxoazetidin-2-yl)phenoxy)-3,4,5-trihydroxytetrahydro-2H-pyran-2-carboxylic acid from rat intestinal brush border membrane NPC1L1 by single tube filtration assay.

Assay [4] deals with NPC1-like intracellular cholesterol transporter 1 (Mus musculus, UniProt Q6T3U4). As to the kind of experiment: Displacement of [35S](2S,3S,4S,5R,6S)-6-(4-((2S,3R)-3-((S)-3-(4-fluorophenyl)-3-hydroxypropyl)-1-(4-(3-(methylsulfonamido)prop-1-ynyl)phenyl)-4-oxoazetidin-2-yl)phenoxy)-3,4,5-trihydroxytetrahydro-2H-pyran-2-carboxylic acid from recombinant mouse NPC1L1 expressed in HEK cells by single tube filtration assay. It counts as cell-based, HEK293.

The target in assay [5] is T1, NPC1-like intracellular cholesterol transporter 1. Put plainly: Displacement of [35S](2S,3S,4S,5R,6S)-6-(4-((2S,3R)-3-((S)-3-(4-fluorophenyl)-3-hydroxypropyl)-1-(4-(3-(methylsulfonamido)prop-1-ynyl)phenyl)-4-oxoazetidin-2-yl)phenoxy)-3,4,5-trihydroxytetrahydro-2H-pyran-2-carboxylic acid from human intestinal brush border membrane NPC1L1 by single tube filtration assay.

T2 sequence (Q6T3U3 21-1331 limits assumed): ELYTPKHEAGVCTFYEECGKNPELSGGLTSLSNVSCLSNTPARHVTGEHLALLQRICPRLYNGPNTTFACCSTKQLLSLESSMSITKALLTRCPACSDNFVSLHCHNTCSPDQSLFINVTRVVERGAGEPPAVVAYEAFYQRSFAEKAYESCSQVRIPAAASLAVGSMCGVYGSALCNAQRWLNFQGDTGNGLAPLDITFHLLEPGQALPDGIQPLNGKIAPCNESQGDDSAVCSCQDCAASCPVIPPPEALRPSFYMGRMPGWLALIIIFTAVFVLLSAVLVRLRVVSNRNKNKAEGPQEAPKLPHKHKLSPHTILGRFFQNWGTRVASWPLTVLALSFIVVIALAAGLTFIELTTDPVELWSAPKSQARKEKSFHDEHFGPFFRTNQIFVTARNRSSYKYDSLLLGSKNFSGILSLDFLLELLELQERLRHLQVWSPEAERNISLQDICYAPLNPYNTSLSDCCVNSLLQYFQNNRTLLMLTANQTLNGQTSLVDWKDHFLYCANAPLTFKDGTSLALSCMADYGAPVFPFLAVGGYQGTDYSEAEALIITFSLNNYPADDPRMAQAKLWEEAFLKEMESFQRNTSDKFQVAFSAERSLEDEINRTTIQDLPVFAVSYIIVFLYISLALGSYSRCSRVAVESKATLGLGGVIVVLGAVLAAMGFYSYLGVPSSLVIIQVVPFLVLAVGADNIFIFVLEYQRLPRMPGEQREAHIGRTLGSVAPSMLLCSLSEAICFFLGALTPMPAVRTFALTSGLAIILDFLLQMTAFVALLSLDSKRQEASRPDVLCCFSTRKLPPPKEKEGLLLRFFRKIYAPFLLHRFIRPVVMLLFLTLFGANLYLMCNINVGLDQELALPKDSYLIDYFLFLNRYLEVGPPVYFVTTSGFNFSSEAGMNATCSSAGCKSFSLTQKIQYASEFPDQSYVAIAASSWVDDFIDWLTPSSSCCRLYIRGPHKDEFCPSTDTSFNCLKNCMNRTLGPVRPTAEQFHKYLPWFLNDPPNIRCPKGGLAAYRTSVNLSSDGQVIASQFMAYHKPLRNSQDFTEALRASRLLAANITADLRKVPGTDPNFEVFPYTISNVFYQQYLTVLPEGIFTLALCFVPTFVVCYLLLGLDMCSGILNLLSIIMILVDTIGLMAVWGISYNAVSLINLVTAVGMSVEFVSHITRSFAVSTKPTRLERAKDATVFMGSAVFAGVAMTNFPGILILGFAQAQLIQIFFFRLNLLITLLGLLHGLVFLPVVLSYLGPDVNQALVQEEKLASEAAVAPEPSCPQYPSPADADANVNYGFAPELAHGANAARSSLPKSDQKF
NPC1-like intracellular cholesterol transporter 1 (Mus musculus, UniProt Q6T3U4), sequence (Q6T3U4 21-1333 limits assumed): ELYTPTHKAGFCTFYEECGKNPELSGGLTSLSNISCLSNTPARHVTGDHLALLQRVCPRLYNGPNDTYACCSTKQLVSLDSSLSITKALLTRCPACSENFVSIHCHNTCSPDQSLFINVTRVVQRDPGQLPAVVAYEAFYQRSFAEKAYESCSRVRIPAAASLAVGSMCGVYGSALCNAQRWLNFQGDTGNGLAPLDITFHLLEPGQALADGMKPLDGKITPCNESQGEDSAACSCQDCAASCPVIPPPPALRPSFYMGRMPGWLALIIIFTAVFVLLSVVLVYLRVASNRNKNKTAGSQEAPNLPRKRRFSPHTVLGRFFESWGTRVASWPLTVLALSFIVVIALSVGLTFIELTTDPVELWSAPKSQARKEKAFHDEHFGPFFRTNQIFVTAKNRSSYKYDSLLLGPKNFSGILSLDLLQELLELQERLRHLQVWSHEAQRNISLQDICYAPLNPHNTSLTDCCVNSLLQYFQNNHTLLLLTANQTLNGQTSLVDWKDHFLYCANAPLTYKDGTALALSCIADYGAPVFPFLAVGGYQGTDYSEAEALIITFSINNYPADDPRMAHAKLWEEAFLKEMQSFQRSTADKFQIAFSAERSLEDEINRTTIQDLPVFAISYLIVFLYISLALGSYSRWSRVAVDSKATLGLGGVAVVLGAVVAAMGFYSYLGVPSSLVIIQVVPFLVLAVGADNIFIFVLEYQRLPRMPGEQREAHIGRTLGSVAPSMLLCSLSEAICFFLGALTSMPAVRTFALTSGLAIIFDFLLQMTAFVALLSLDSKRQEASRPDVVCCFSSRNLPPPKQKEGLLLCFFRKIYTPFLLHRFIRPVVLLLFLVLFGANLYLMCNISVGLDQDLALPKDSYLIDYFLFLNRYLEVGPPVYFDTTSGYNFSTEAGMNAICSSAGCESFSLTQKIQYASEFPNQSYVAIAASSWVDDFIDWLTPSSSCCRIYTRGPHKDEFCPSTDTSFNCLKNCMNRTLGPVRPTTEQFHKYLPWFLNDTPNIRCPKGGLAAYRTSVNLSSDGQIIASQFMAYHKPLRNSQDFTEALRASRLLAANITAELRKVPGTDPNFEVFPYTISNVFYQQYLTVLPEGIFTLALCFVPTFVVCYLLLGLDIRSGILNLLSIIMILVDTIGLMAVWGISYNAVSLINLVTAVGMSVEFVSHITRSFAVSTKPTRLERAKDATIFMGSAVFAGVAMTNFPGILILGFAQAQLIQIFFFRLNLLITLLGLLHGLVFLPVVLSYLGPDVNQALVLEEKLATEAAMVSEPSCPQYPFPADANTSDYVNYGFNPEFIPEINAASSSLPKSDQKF

A word on the IC50: it is the point on the concentration scale where inhibition reaches its midpoint. As for `C[35S](=O)(=O)NCC#Cc1ccc(N2C(=O)[C@H](CC[C@H](O)c3ccc(F)cc3)[C@H]2c2ccc(O[C@@H]3O[C@H](C(=O)O)[C@@H](O)[C@H](O)[C@H]3O)cc2)cc1`, the half-inhibitory concentration (IC50) was determined as 4 nM in assay [1]; 4 nM in assay [2]; 4 nM in assay [3]; 44 nM in assay [4]; 4 nM in assay [5].
